Reference: patent US9073881B2, “Benzoic acid derivatives” (HOFFMANN-LA ROCHE INC., priority 2011, dated 2015)

Biological target: Human eIF4E (Homo sapiens (Human), UniProt P06730)
Test: Human eIF4E/4G binding assay (time-resolved fluorescence, HH-eIF4E and biotin-labeled 4G2 peptide)
Settings: inhibition of binding of His-tagged human eIF4E (aa 28-217) to biotin-labeled 4G2 peptide
Description: The protein was solubilized with 8 M urea and purified under denaturing conditions using nickel-charged HisTrap HP columns (GE Healthcare). The protein was refolded by diluting to approximately 0.25 mg/mL with 6 M urea, 20 mM Hepes pH 7.0, 500 mM NaCl, 1 mM DTT, 1 mM EDTA, and 0.5 M arginine.HCl, and then dialyzing overnight into the same buffer without the urea. The protein was further dialyzed into 20 mM Hepes pH 6.5, 50 mM NaCl, 1 mM EDTA, and 1 mM DTT, filtered, and then concentrated using Hitrap SP sepharose FF columns (GE Healthcare). The protein was dialyzed into 20 mM Hepes pH 7.0, 500 mM NaCl, 5 mM DTT, and 10% glycerol and stored at −80° C. until use. Test compounds (1.6 mM stock in DMSO) were diluted 3 fold in series in DMSO. Compound solutions were diluted 4 fold in Assay Buffer (50 mM sodium phosphate, pH 6.5, 50 mM KCl, 1 mM DTT and 0.5 mg/mL gammaglobulin). […] The samples were incubated at room temperature for 20 minutes. […] IC50 values were calculated using Condoseo software (Genedata AG).

Chain of Human eIF4E (P06730 28-217): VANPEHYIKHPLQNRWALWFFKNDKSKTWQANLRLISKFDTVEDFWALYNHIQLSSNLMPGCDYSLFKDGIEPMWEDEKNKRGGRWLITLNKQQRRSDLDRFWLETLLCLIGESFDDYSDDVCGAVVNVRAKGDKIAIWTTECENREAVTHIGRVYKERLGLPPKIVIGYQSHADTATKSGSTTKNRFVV

Question: Which IC50 does the source give for `O=C(O)c1cc(-c2nc(-c3ccc(Cl)c(Cl)c3)cs2)ccc1-c1cccc(F)c1F` [Example 138, 4-[4-(3,4-Dichloro-phenyl)-thiazol-2-yl]-2′,3′-difluoro-biphenyl-2-carboxylic acid] here?
Answer: The IC50 was 1.9 µM.

Question: `O=C(O)c1cc(-c2nc(-c3ccc(Br)s3)cs2)ccc1-c1ccccc1[N+](=O)[O-]` [Example 25, 4-[4-(5-Bromo-thiophen-2-yl)-thiazol-2-yl]-2′-nitro-biphenyl-2-carboxylic acid] was tested. Which IC50 did it give?
Answer: The IC50 was 4.4 µM.

Question: `N#Cc1cccc(-c2ccc(-c3nc(-c4ccc(Cl)c(Cl)c4)cs3)cc2C(=O)O)c1` [Example 107, 3′-Cyano-4-[4-(3,4-dichloro-phenyl)-thiazol-2-yl]-biphenyl-2-carboxylic acid] was tested. Which IC50 did it give?
Answer: Its IC50 is 3.2 µM.

Question: Which IC50 does the source give for `N#Cc1cc(-c2ccc(-c3nc(-c4ccc(Cl)c(Cl)c4)cs3)cc2C(=O)O)ccc1Cl` [Example 115, 4′-Chloro-3′-cyano-4-[4-(3,4-dichloro-phenyl)-thiazol-2-yl]-biphenyl-2-carboxylic acid] here?
Answer: The IC50 was 1.9 µM.

Question: Which IC50 does the source give for `O=C(NCc1ccccc1)c1ccc(-c2ccc(-c3nc(-c4ccc(Cl)c(Cl)c4)cs3)cc2C(=O)O)cc1` [Example 76, 4′-Benzylcarbamoyl-4-[4-(3,4-dichloro-phenyl)-thiazol-2-yl]-biphenyl-2-carboxylic acid] here?
Answer: Its IC50 is 2.3 µM.

Question: With `CN1CCN(C(=O)c2ccc(-c3ccc(-c4nc(-c5ccc(Cl)c(Cl)c5)cs4)cc3C(=O)O)cc2)CC1` [Example 53, 4-[4-(3,4-Dichloro-phenyl)-thiazol-2-yl]-4′-(4-methyl-piperazine-1-carbonyl)-biphenyl-2-carboxylic acid] as the molecule, how does the IC50 read?
Answer: Its IC50 is greater than 80 µM.

Question: How did the IC50 turn out when `O=C(O)c1cc(-c2nc(-c3ccccn3)cs2)ccc1-c1ccccc1[N+](=O)[O-]` [Example 37, 2′-Nitro-4-(4-pyridin-2-yl-thiazol-2-yl)-biphenyl-2-carboxylic acid] was run?
Answer: Its IC50 is greater than 80 µM.

Question: For `O=C(O)c1cc(-c2nc(-c3ccc(Cl)c(Cl)c3)cs2)ccc1-c1ccccc1` [Example 151, 4-[4-(3,4-Dichloro-phenyl)-thiazol-2-yl]-biphenyl-2-carboxylic acid], which IC50 is on record?
Answer: Its IC50 is 5.9 µM.

Question: With `O=C(O)c1cc(-c2nc(-c3ccc(F)c(Cl)c3)cs2)ccc1-c1ccccc1[N+](=O)[O-]` [Example 18, 4-[4-(3-Chloro-4-fluoro-phenyl)-thiazol-2-yl]-2′-nitro-biphenyl-2-carboxylic acid] as the molecule, how does the IC50 read?
Answer: Its IC50 is 5 µM.

Question: With `Cc1ccccc1-c1ccc(-c2nc(-c3ccc(Cl)c(Cl)c3)cs2)cc1C(=O)O` [Example 141, 4-[4-(3,4-Dichloro-phenyl)-thiazol-2-yl]-2′-methyl-biphenyl-2-carboxylic acid] as the molecule, how does the IC50 read?
Answer: Its IC50 is 5.9 µM.

Question: `Cn1nccc1CNC(=O)c1ccc(-c2ccc(-c3nc(-c4ccc(Cl)c(Cl)c4)cs3)cc2C(=O)O)cc1` [Example 50, 4-[4-(3,4-Dichloro-phenyl)-thiazol-2-yl]-4′-[(2-methyl-2H-pyrazol-3-ylmethyl)-carbamoyl]-biphenyl-2-carboxylic acid] was tested. Which IC50 did it give?
Answer: Its IC50 is 7.8 µM.

Question: How did the IC50 turn out when `CCN(CC)CCCNC(=O)c1ccc(-c2ccc(-c3nc(-c4ccc(Cl)c(Cl)c4)cs3)cc2C(=O)O)cc1` [Example 47, 4-[4-(3,4-Dichloro-phenyl)-thiazol-2-yl]-4′-(3-diethylamino-propylcarbamoyl)-biphenyl-2-carboxylic acid] was run?
Answer: The IC50 was greater than 80 µM.

Question: Which IC50 does the source give for `COc1ccccc1-c1ccc(-c2nc(-c3ccc(Cl)c(Cl)c3)cs2)cc1C(=O)O` [Example 92, 4-[4-(3,4-Dichloro-phenyl)-thiazol-2-yl]-2′-methoxy-biphenyl-2-carboxylic acid] here?
Answer: Its IC50 is 4.8 µM.

Question: With `CC(=O)c1sccc1-c1ccc(-c2nc(-c3ccc(Cl)c(Cl)c3)cs2)cc1C(=O)O` [Example 119, 2-(2-Acetyl-thiophen-3-yl)-5-[4-(3,4-dichloro-phenyl)-thiazol-2-yl]-benzoic acid] as the molecule, how does the IC50 read?
Answer: Its IC50 is 9.6 µM.

Question: How did the IC50 turn out when `N#Cc1ccc(-c2ccc(-c3nc(-c4ccc(Cl)c(Cl)c4)cs3)cc2C(=O)O)cc1` [Example 106, 4′-Cyano-4-[4-(3,4-dichloro-phenyl)-thiazol-2-yl]-biphenyl-2-carboxylic acid] was run?
Answer: Its IC50 is 7.6 µM.
